Source: ChEMBL document CHEMBL1134231, “Peptidomimetic inhibitors of protein farnesyltransferase show potent antimalarial activity” (Bioorg Med Chem Lett, 2001)
Values after ≈ are worked out from the molar mass of the structure shown.

How the values were obtained:
[1] = target: Protein farnesyltransferase (Homo sapiens, UniProt P49354+P49356); test: Inhibition of mammalian Farnesyltransferase; type: protein-complex assay
Plasmodium falciparum [2] = test: Growth inhibition of Plasmodium falciparum 3D7 infected red blood cells; type: functional; conditions: read-out: ED50 (the source's name)
Plasmodium falciparum [3] = test: Percent growth inhibition of Plasmodium falciparum 3D7 in erythrocytes at 20 uM; type: functional
[4] = target: Protein farnesyltransferase (Mus musculus, UniProt Q61239+Q8K2I1); test: Inhibition of mammalian H-Ras processing in NIH 3T3 cells; type: functional, cell-based, NIH3T3
Plasmodium falciparum [5] = test: Inhibition of Plasmodium falciparum 3D7 infected red blood cells; type: functional; conditions: read-out: ED50 (the source's name)

SMILES | IC50 [1] [nM] | IC50 [4] [nM] | EC50 (Plasmodium falciparum [5]) [µg/mL] | EC50 (Plasmodium falciparum [2]) [µg/mL] | inhibition at 20 µM (Plasmodium falciparum [3]) [%]
COC(=O)[C@H](CCSC)NC(=O)c1ccc(CNCc2c[nH]cn2)cc1-c1ccccc1C | 34000 | 20 | – | 2 (≈ 4.29 µM) | 99
N#Cc1ccc(Cn2cncc2CNc2ccc(C(=O)NCc3ccccc3)c(-c3ccccc3)c2)cc1 | 640 | – | – | 4 (≈ 8.04 µM) | –
CSCC[C@H](NC(=O)c1ccc(NCc2cn(Cc3cccc4ccccc34)cn2)cc1-c1ccccc1)C(=O)O | 3000 | > 100000 | – | 10 (≈ 17.7 µM) | 19.4
N#Cc1ccc(Cn2cncc2CNc2ccc(C(=O)NCC3CCCCC3)c(-c3ccccc3)c2)cc1 | 3100 | > 100000 | – | 3 (≈ 5.96 µM) | –
CSCC[C@H](NC(=O)c1ccc(NCc2cn(Cc3ccc(-c4ccccc4)cc3)cn2)cc1-c1ccccc1)C(=O)O | 6000 | > 100000 | – | 12 (≈ 20.3 µM) | –
CSCC[C@H](NC(=O)c1ccc(NCc2cn(CC3CCCCC3)cn2)cc1-c1ccccc1)C(=O)O | 780 | – | – | > 30 | –
CSCC[C@H](NC(=O)c1ccc(CNCc2c[nH]cn2)cc1-c1ccccc1C)C(=O)O | 1 | 200 | – | > 30 | 0
CSCC[C@H](NC(=O)c1ccc(NCc2cncn2CC2CCCCC2)cc1-c1ccccc1)C(=O)O | 41 | – | – | 10 (≈ 19.2 µM) | 72
CSCC[C@H](NC(=O)c1ccc(NC[C@@H](N)CS)cc1-c1ccccc1)C(=O)O | – | – | > 30 | – | –

The next lines start with results.

IC50 [1] [nM] | IC50 [4] [nM] | EC50 (Plasmodium falciparum [5]) [µg/mL] | SMILES | EC50 (Plasmodium falciparum [2]) [µg/mL] | inhibition at 20 µM (Plasmodium falciparum [3]) [%]
7.2 | 5000 | – | CSCC[C@H](NC(=O)c1ccc(NCc2cncn2Cc2ccc(C#N)cc2)cc1-c1ccccc1)C(=O)O | 13 (≈ 24.1 µM) | 86.3
260 | > 100000 | – | CSCC[C@H](NC(=O)c1ccc(NCc2cncn2Cc2ccc(-c3ccccc3)cc2)cc1-c1ccccc1)C(=O)O | 5 (≈ 8.46 µM) | 89.1
220 | – | – | N#CCCNC(=O)c1ccc(NCc2cncn2Cc2ccc(C#N)cc2)cc1-c1ccccc1 | 10 (≈ 21.7 µM) | –
380 | > 100000 | – | CC(C)NC(=O)c1ccc(NCc2cncn2Cc2ccc(C#N)cc2)cc1-c1ccccc1 | 3 (≈ 6.67 µM) | –
